What was measured:
[1] = target: T1, COPZ1 (endogenous, in EV-A71-infected RD cells) (Homo sapiens, UniProt P61923); experiment: photoaffinity labelling in cells, pulldown / western blot; assay type: cell-based; settings: covalent (diazirine photo-crosslinking, 365 nm)
T1 sequence (P61923 1-177): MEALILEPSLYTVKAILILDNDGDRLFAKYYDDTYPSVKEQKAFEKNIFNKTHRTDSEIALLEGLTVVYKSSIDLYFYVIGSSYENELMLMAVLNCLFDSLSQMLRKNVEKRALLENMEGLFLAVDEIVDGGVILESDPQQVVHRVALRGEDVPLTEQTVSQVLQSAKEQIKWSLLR

[2] = target: T2, COPZ1^7-150 (truncated human coatomer subunit zeta-1) (Homo sapiens, UniProt P61923); experiment: fluorescence thermal shift assay (Sypro Orange); assay type: binding; settings: 10 µM compound; 4 µM protein; 20 mM HEPES, 150 mM NaCl, pH 7.5
T2 construct: E. coli BL21(DE3), pET-28a(+)
T2 sequence (P61923 7-150): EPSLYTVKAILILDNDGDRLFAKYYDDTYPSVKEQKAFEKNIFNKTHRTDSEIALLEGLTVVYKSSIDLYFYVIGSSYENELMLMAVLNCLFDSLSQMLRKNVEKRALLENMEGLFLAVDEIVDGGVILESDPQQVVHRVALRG

[3] = target: T2, COPZ1^7-150 (truncated human coatomer subunit zeta-1); experiment: SPR, CM5 chip, COPZ1 immobilised; assay type: binding
[4] = target: T1, COPZ1 (endogenous, in EV-A71-infected RD cells); experiment: competition against MPA-P photoaffinity labelling, pulldown / western blot; assay type: cell-based; settings: competitor of photoaffinity probe MPA-P

ΔT m [2] | Kd [3] | SMILES | photoaffinity labelling in cells, pulldown / western blot [1] | competition against MPA-P photoaffinity labelling, pulldown / western blot [4]
 |  | C#CCCC1(CCSc2c(Cl)cc(C(=O)c3ccc(C(F)(F)F)cc3O)n2-c2c(C(=O)c3ccc(C(F)(F)F)cc3O)[nH]c(Cl)c2Cl)N=N1 [MPA-P] | labeling intensity of COPZ1 by MPA‐P in EV‐A71‐infected RD cells | 
−3.6 °C | 0.024 µM | O=C(c1ccc(C(F)(F)F)cc1O)c1[nH]c(Cl)c(Cl)c1-n1c(C(=O)c2ccc(C(F)(F)F)cc2O)cc(Cl)c1Cl [MPA-CF3] |  | implying that MPA‐CF3 specifically binds to COPZ1 in intact cells
